Measured values published in article PMC10520017, “Discovery of Nedd4 auto-ubiquitination inhibitors” (Scientific Reports, 2023).
Numbering of substitutions follows the chain as printed. Where “and” joins values, the source holds several entries; their conditions need not be identical. Equal entries are not always repeated. Where two headings read alike, the source gives them in different places.

How the values were obtained:
Nedd4 [1] = test system: Nedd4; set-up: method as in PMID 27979631; conditions: cited from earlier work
Nedd4 [2] = target: T1, Nedd4 (Homo sapiens, UniProt P46934)
T1 sequence (P46934 1-900 isoform P46934-4): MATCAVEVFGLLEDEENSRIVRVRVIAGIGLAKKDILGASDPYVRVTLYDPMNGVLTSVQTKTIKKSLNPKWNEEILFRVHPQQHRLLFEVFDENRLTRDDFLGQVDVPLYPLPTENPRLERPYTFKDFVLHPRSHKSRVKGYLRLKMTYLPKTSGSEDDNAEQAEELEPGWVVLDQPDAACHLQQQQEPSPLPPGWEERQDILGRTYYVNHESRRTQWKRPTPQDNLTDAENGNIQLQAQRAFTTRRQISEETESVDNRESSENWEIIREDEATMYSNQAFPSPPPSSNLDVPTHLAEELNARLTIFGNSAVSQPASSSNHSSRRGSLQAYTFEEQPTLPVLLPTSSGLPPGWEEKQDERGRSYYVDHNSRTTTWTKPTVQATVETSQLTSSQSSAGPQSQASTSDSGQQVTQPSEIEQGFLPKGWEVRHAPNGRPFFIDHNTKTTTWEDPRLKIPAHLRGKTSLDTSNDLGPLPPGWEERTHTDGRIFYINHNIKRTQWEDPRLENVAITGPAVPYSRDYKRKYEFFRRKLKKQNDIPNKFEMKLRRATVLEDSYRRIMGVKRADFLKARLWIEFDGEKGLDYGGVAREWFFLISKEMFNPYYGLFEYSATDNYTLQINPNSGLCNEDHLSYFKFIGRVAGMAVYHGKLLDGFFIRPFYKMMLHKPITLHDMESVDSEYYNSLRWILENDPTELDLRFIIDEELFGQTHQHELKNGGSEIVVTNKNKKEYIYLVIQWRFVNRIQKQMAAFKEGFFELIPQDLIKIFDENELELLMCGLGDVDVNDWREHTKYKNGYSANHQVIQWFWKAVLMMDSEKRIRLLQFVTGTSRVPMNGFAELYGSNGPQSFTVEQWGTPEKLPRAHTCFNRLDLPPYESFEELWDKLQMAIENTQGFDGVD
Procedure: (§1) All time-resolved fluorescence resonance energy transfer (TR-FRET) auto-ubiquitination assays were performed in a final volume of 10 µL in PerkinElmer 384-well flat bottom white OptiPlate™ polystyrene microplates (PerkinElmer Cat. No. 6007290). […] A low concentration of NP-40 detergent (0.00063% v/v) was chosen for the Nedd4 auto-ubiquitination assay since this concentration yielded optimal terbium emission at 485 nm after 340 nm excitation (Supplementary Fig. 2). […] Reaction mixes containing all assay components except ATP-MgCl2 were preincubated with either library compounds dissolved in 1% DMSO or DMSO alone at RT for up to 2 h. To initiate the auto-ubiquitination reaction, 2 mM ATP-MgCl2 was added and incubated at 37 °C for 60–90 min. TR-FRET signal was measured in a Synergy 4 microplate reader (BioTek) using a 340/30 nm excitation filter and measuring the emission ratio using 485/20 nm and 528/20 nm emission filters. Fluorescence measurement was performed over a 400 µs window following a 100 µs delay post-excitation (Fig. 1).
(§2) All experiments were performed in triplicate (n = 3), and plotted values represent the average of three replicates with the standard deviation. TR-FRET signal refers to background values subtracted using control wells containing Tb-SA and Ub-FITC. Data were plotted using GraphPad 9.1.2 (GraphPad, La Jolla, CA) and fitted to a four-parameter sigmoidal dose–response curve. Where applicable, the dose–response was normalized and expressed as a percentage of auto-ubiquitination activity relative to the DMSO control.

Nedd4 [3] = target: T1, Nedd4; test: biochemical
Procedure: as §1, §2

WWP1 = WWP1 (Homo sapiens, UniProt Q9H0M0); conditions: 200 µM
Procedure: (§3) All time-resolved fluorescence resonance energy transfer (TR-FRET) auto-ubiquitination assays were performed in a final volume of 10 µL in PerkinElmer 384-well flat bottom white OptiPlate™ polystyrene microplates (PerkinElmer Cat. No. 6007290). […] Concentrations of Ub activating (E1) and conjugating (E2) enzymes and fluorophores were selected to provide sufficient TR-FRET signal intensity for compound screening without excessive reagent consumption (Supplementary Fig. 3). Reaction mixes containing all assay components except ATP-MgCl2 were preincubated with either library compounds dissolved in 1% DMSO or DMSO alone at RT for up to 2 h. To initiate the auto-ubiquitination reaction, 2 mM ATP-MgCl2 was added and incubated at 37 °C for 60–90 min. TR-FRET signal was measured in a Synergy 4 microplate reader (BioTek) using a 340/30 nm excitation filter and measuring the emission ratio using 485/20 nm and 528/20 nm emission filters. Fluorescence measurement was performed over a 400 µs window following a 100 µs delay post-excitation (Fig. 1). Similarly, TR-FRET assays were used to measure the auto-ubiquitination activity of two other Nedd4 family HECT E3 ligases (WWP1 and WWP2) using alternative optimized buffer and fluorophore concentrations to test Nedd4 inhibitor specificity (Supplementary Table 2).
For selectivity assays, we used C-terminal His-tagged WWP1 and WWP2 bound to Tb-labelled
anti-His-tag antibody and FITC-labelled ubiquitin.
Tb-SA 50 nM AntiHis-Tb 16.5 nM AntiHis-Tb 10 nM
NaCl 150 mM NaCl 0 mM NaCl 0 mM
TCEP 0.1 mM TCEP 0.1 mM TCEP 0.1 mM
DMSO 1 % DMSO 1 % DMSO 1 %
MgCl2 2 mM MgCl2 2 mM MgCl2 2 mM
ATP 2 mM ATP 2 mM ATP 2 mM

WWP2 = WWP2 (Homo sapiens, UniProt O00308); conditions: 200 µM
Procedure: as §3
For selectivity assays, we used C-terminal His-tagged WWP1 and WWP2 bound to Tb-labelled […]

Nedd4 [4] = target: T1, Nedd4; test: Western blotting for ubiquitination and biotinylated Nedd4; assay type: biochemical; conditions: 50 and 100 µM, 2 h at RT
Procedure: The auto-ubiquitination reactions were initiated with the addition of 2 mM ATP-MgCl2. Another control reaction was performed without the addition of ATP-MgCl2 for comparison (negative control).

Nedd4 C627A = target: T2, Nedd4 C627A (Homo sapiens, UniProt P46934, C1046A); test: TR-FRET auto-ubiquitination assay of Nedd4 mutant C627A; assay type: biochemical; conditions: 2 h at RT, read-out: retention of uninhibited C627A activity
T2 construct: full length C182A, C627A, C867A, and C627A + C867A mutants; made in house; host or cells: E. coli BL21 (D3)-BirA
T2 sequence (P46934 1-900 isoform P46934-4 C627A): T1 sequence (P46934 1-900 isoform P46934-4) with C627A
Procedure: (§4) All time-resolved fluorescence resonance energy transfer (TR-FRET) auto-ubiquitination assays were performed in a final volume of 10 µL in PerkinElmer 384-well flat bottom white OptiPlate™ polystyrene microplates (PerkinElmer Cat. No. 6007290). […] A low concentration of NP-40 detergent (0.00063% v/v) was chosen for the Nedd4 auto-ubiquitination assay since this concentration yielded optimal terbium emission at 485 nm after 340 nm excitation (Supplementary Fig. 2). Concentrations of Ub activating (E1) and conjugating (E2) enzymes and fluorophores were selected to provide sufficient TR-FRET signal intensity for compound screening without excessive reagent consumption (Supplementary Fig. 3). Reaction mixes containing all assay components except ATP-MgCl2 were preincubated with either library compounds dissolved in 1% DMSO or DMSO alone at RT for up to 2 h. […] TR-FRET signal was measured in a Synergy 4 microplate reader (BioTek) using a 340/30 nm excitation filter and measuring the emission ratio using 485/20 nm and 528/20 nm emission filters. Fluorescence measurement was performed over a 400 µs window following a 100 µs delay post-excitation (Fig. 1).
(§5) All assays were carried out in triplicate with the data representing the mean with standard deviation. […] Auto-ubiquitination reactions were allowed to proceed for 1 h at 37 °C and then read through the TR-FRET assay described in the methods.

Nedd4 C867A = target: T3, Nedd4 C867A (Homo sapiens, UniProt P46934, C1286A); test: TR-FRET auto-ubiquitination assay of Nedd4 mutant C867A; assay type: biochemical; conditions: 200 µM, 2 h at RT
T3 construct: full length C182A, C627A, C867A, and C627A + C867A mutants; made in house; host or cells: E. coli BL21 (D3)-BirA
T3 sequence (P46934 1-900 isoform P46934-4 C867A): T1 sequence (P46934 1-900 isoform P46934-4) with C867A
Procedure: as §4, §5

Nedd4 C627A + C867A = target: T4, Nedd4 C627A + C867A (Homo sapiens, UniProt P46934, C1046A/C1286A); test: TR-FRET auto-ubiquitination assay of Nedd4 double mutant C627A + C867A; assay type: biochemical; conditions: 200 µM, 2 h at RT
T4 construct: full length C182A, C627A, C867A, and C627A + C867A mutants; made in house; host or cells: E. coli BL21 (D3)-BirA
T4 sequence (P46934 1-900 isoform P46934-4 C627A/C867A): T1 sequence (P46934 1-900 isoform P46934-4) with C627A, C867A
Procedure: as §4, §5

Nedd4 [5] = target: T1, Nedd4; test: LC–MS/MS covalent adduction and site identification; assay type: binding; set-up: 30 µg of N-terminal His-tagged and C-terminal biotinylated Nedd4 (residue 1–900); made in house; host or cells: E. coli BL21 (D3)-BirA
Procedure: Samples were run on SDS-PAGE and stained with Coomassie Brilliant Blue R-250 (Thermo Fisher Scientific cat no. 20278). Gels were destained in water until the desired contrast was reached. The Nedd4 bands were cut and stored in 1% acetic acid at 4 °C until use. Samples were submitted to the SPARC Molecular Analysis Centre at the Hospital for Sick Children (Toronto, ON, CA) for LC–MS/MS analysis. Each gel band was cut into 3 pieces and digested with 0.8 µg pepsin, 0.6 µg trypsin and 0.6 µg chymotrypsin separately. The peptides obtained through the proteolytic digest were combined then lyophilized and resuspended in 0.1% formic acid. These samples were then subjected to MS/MS spectroscopy by an EASY-nLC 1200 nano-LC system + Thermo Scientific Orbitrap Fusion Lumos Tribrid mass spectrometer. MS data was analyzed using Scaffold PTM 4.0.1.

[6] = 200 µM compound, 3 h incubation

Chain of WWP1 (Q9H0M0 349-922): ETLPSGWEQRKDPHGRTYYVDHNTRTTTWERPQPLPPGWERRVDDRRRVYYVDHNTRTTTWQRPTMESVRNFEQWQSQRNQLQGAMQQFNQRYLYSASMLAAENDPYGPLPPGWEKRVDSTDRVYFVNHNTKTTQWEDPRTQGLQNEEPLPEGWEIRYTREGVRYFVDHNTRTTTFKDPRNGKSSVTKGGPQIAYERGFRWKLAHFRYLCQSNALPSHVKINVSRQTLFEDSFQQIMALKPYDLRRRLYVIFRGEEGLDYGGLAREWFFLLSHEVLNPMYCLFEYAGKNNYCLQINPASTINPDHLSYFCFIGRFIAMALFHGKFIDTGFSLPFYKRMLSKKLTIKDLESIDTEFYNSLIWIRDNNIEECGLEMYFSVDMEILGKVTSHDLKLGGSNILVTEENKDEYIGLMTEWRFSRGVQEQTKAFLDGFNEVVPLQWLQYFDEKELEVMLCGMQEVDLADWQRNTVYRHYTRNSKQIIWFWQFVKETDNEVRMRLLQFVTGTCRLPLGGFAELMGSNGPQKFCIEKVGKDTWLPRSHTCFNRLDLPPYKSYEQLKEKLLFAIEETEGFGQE
Chain of WWP2 (O00308 whole entry): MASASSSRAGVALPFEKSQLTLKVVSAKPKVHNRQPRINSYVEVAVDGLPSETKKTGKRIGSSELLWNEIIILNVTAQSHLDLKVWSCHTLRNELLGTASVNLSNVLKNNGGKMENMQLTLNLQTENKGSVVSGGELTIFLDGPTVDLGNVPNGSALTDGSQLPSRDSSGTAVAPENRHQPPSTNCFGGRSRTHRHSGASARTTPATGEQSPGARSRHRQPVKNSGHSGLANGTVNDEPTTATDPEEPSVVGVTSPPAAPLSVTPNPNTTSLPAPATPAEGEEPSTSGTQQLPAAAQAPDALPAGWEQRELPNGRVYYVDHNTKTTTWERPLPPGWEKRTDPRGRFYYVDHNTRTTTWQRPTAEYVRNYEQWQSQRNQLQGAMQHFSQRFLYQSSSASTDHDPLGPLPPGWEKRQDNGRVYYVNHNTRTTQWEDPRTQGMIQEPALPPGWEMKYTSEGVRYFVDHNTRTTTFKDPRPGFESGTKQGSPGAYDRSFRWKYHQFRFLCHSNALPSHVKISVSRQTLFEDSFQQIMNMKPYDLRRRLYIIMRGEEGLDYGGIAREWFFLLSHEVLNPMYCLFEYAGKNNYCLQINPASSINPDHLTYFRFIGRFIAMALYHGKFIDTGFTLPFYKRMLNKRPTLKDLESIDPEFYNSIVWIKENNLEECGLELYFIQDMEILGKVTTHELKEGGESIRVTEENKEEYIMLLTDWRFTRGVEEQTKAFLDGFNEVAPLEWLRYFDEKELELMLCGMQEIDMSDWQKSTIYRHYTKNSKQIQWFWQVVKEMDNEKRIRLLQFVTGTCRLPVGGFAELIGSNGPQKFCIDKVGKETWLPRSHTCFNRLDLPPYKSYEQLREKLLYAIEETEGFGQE

SMILES: OCc1cn(Cc2ccccc2)c2ccccc12 [Compound 1-benzyl-I3C, 1-benzyl-I3C]
- IC50 (Nedd4 [1]; measured through an ELISA-based assay of Nedd4 activity): 12.3 µM

SMILES: OCc1c[nH]c2ccccc12 [Compound 5, Indole-3-carbinol, reference compound]
- inhibition (Nedd4 [2]; 500 µM): 33%
- IC50 (Nedd4 [1]; previously reported): 284 µM

SMILES: Cn1cc(C(=O)CCl)c2ccccc21 [Compound 6]
- IC50 (Nedd4 [3]): 174 µM and 170 µM

SMILES: COC(=O)c1ccc2[nH]cc(C(=O)CCl)c2c1 [Compound 11]
- IC50 (Nedd4 [3]): 96.8 µM and 100 µM

SMILES: O=C(CCl)c1c[nH]c2ccncc12 [Compound 13]
- inhibition (WWP1): 47% and 72%
- inhibition (WWP2): 58% and 73%

SMILES: Cc1cc(C(=O)CCl)c(C)n1-c1ccccc1 [Compound 20]
- IC50 (Nedd4 [3]): 244 µM and 240 µM

SMILES: COCCn1c(C)cc(C(=O)CCl)c1C [Compound 21]
- IC50 (Nedd4 [3]): 143 µM and 140 µM

SMILES: Cc1cc(C(=O)CCl)c(C)[nH]1 [Compound 23]
- inhibition (WWP1): ~25%
- IC50 (Nedd4 [3]): < 60 µM and 56 µM

SMILES: Cn1ccc(C(=O)CCl)c1 [Compound 24]
- IC50 (Nedd4 [3]): 116 µM and 115 µM

SMILES: O=C(CCl)c1c[nH]c2ccccc12 [Compound 25]
- inhibition (WWP1): ~25%

SMILES: Cc1cc(C(=O)CCl)c(C)n1CCC(C)C [Compound 29]
- IC50 (Nedd4 [3]): 88 µM and 90 µM

SMILES: Cc1cc(C(=O)C(C)Cl)c(C)n1Cc1ccco1 (centres unmarked) [Compound 36]
- IC50 (Nedd4 [3]): 113 µM and 110 µM

SMILES: O=C(CCl)c1ccccn1 [Compound 81]
- effect on Nedd4 auto-ubiquitination by Western blot (Nedd4 [4]): complete loss of auto-ubiquitination
- activity at 200 µM (Nedd4 C627A): 30%
- change of C867A mutant activity on incubation with compound (Nedd4 C867A): No significant differences
- change of C627A + C867A mutant activity on incubation with compound (Nedd4 C627A + C867A): No significant differences
- inhibition (Nedd4 [2]; 200 µM): > 50%
- IC50 (Nedd4 [3]): 31 µM and < 60 µM
- cysteine adduction sites confirmed by MS/MS (Nedd4 [5]; 200 µM compound, 3 h at RT): all three of the confirmed cysteine residues
- Occurrence Among Observed Peptides, Cysteine Site C182 (Nedd4 [5]; [6]): 25/67
- Occurrence Among Observed Peptides, Cysteine Site C627 (Nedd4 [5]; [6]): 8/12
- Occurrence Among Observed Peptides, Cysteine Site C867 (Nedd4 [5]; [6]): 21/50
- Localization Probability of Compound 81 modification on cysteine (Cys627 peptide) (Nedd4 [5]; sheet "81 Mod Cys627", per peptide spectrum match, residues 639-657, C11 or C9 of the peptide): 100% and 72%, 0%, 100% and 100%, 100%
